Consider 30 molecules from patent publication US20110082133A1, “PYRIDONE COMPOUNDS” (priority 2008, published 2011).

In assay [1] the target is rat EP4 receptor (Rattus norvegicus, UniProt P43114). The experiment in a line: Evaluation test on EP4 receptor affinity in rat ([3H]PGE2 receptor binding test, membrane fraction). Particulars: [3H]PGE2 0.3 nM, membrane fraction of rat EP4 expressing HEK293 cells. The arrangement: expressed in transfected cells; host or cells: HEK293 cells, transient transfection (Lipofectamine 2000); membrane fraction used. On the procedure: A rat EP4 receptor cDNA was subcloned into an expression vector (pcDNA3.1-V5-His-topo, manufactured by Invitrogen Corporation) to prepare a rat EP4 expression vector. HEK293 cells were cultured in a collagen type I-treated 15 cm dish (manufactured by Asahi Techno Glass Co. Ltd.) to a confluence of 70%. An Opti-MEM culture medium at 1.2 mL/dish and a transfection reagent (Lipofectamine 2000, manufactured by Invitrogen Corporation) at 60 μL/dish were mixed, followed by being left to stand at room temperature for 5 minutes. Then, the rat EP4 receptor expression vector at 15 μg/dish was added thereto, followed by being left to stand at room temperature for 30 minutes. The liquid mixture of the transfection reagent was added into the dish, followed by culturing for 20 to 24 hours. The cell culture was carried out in a CO2 incubator (37° C., 5% CO2).
The culture medium was removed by suction, 10 mL of cooled PBS was added thereto per 15 cm dish, and the cells were scraped using a cell scraper. After washed with cooled PBS (1,200 rpm, 4° C., 5 minutes), suspended in 6 mL/dish of cooled 20 mM Tris-HCl (pH 7.4; manufactured by Nacalai Tesque Inc., 5 mM EDTA included) and homogenized using a Polytron, the homogenate was centrifuged (26,000 rpm, 20 minutes, 4° C.). The obtained precipitate was resuspended in cooled 20 mM Tris-HCl and homogenized again using a Polytron, and the homogenate was centrifuged (26,000 rpm, 20 minutes, 4° C.). The obtained precipitate was resuspended in 50 mM HEPES (pH 7.5; manufactured by Dojindo Laboratories) at 1 mL per dish, homogenized using a Polytron, and freeze-stored at −80° C. as a membrane fraction. At this time, a part thereof was used for the measurement of the protein concentration. Measurement of the protein concentration was carried out using a Protein assay stain (manufactured by Bio-Rad Laboratories) in accordance with a standard Protocol as appended in duplicate.
[^3H]PGE2 50 μL (final concentration 0.3 nM; manufactured by Perkin Elmer Co., Ltd.), 100 μL (20 μg/well) of the membrane fraction prepared from the rat EP4 expression cell, and 50 μL of a test compound were mixed in a 96-well microplate (manufactured by Sumitomo Bakelite Co., Ltd.), incubated at room temperature for 1 hour, then filtered by suction on a microplate (UniFilter-96 GF/B, manufactured by Perkin Elmer Co., Ltd.) using a cell harvester (FilterMate Harvester, manufactured by Perkin Elmer Co., Ltd.), and washed three times with 300 μL/well of a cooled assay buffer (50 mM HEPES, 10 mM MgCl2). Dilution of [^3H]PGE2 and the membrane fraction was carried out using the assay buffer, and dilution of the test compound and the unlabeled PGE2 was carried out using dimethyl sulfoxide and the assay buffer. The UniFilter-96 GF/B was treated by preliminarily washing twice with 200 μL/well of the cooled assay buffer. The UniFilter-96 GF/B after filtration was dried in a dryer overnight, 50 μL/well of a liquid scintillation cocktail (MicroScint20, manufactured by Perkin Elmer Co., Ltd.) was added thereto, and the radioactivity was then measured using a liquid scintillation counter for a microplate (TopCount, manufactured by Perkin Elmer Co., Ltd.). For measurement of the non-specific binding, an unlabeled PGE2 (final concentration 1 μM; manufactured by Cayman Chemical Company) was added. All of the measurements were carried out in duplicate, and the specific binding amount was determined by subtracting the non-specific binding amount from the total binding amount.
According to the test method as described above, the rat EP4 receptor affinity (Ki) of the compound of the formula (I) was measured. […] In this connection, Ex means Example Compound number.

Assay [2] concerns TNF-α production. The experiment in a line: In vivo TNF-α production inhibiting action in rat (LPS-induced plasma TNF-α). To be noted: oral administration 1 hour before LPS (10 μg/kg i.v.), plasma TNF-α 90 minutes after LPS. The arrangement: species or system SD male rats. On the procedure:
LPS (10 μg/kg) was administered to caudal veins of SD male rats, and after 90 minutes from the administration, the heparin blood was collected from the abdominal vena cava to prepare a plasma. The test compound was orally administered 1 hour before the administration of LPS. The amount of TNF-α in the plasma was measured using a BD OptEIA rat TNF ELISA set (manufactured by Becton, Dickinson and Company) according to the attached method. The inhibitory rate by the test compound was determined from the amount of TNF-α in plasma in a control group (administered with a solvent).

The subject of assay [3] is LPS-induced TNF-α production in THP-1 cells. The assay is described as follows: Inhibitory action on LPS-induced TNF-α production in THP-1 cells. To be noted: Homo sapiens, 3 hours after LPS, ELISA. The assay is classed as cell-based. How it is done:
Human monocytic cell line THP-1 cells were suspended in an assay medium (PRMI-1640 containing 10% fetal bovine serum, 100 unit/mL penicillin G sodium, and 100 μg/mL streptomycin sulfate), and seeded onto a 96-well plate at 1×10^5 cells/well. 50 μL/well of an assay medium containing a test compound was added thereto, followed by incubation at 37° C. for 30 minutes. Further, 50 μL/well of an assay medium containing 1 to 5 μg/mL of LPS was added thereto, and the TNF-α concentration in the assay medium of each well after 3 hours was measured. The measurement was carried out by means of a standard ELISA method. A 96-well plate which had been coated overnight with an anti-human TNF monoclonal antibody (clone: MAb1) (manufactured by Becton, Dickinson and Company) as a capture antibody was washed with a wash buffer (PBS containing 0.05% Tween-20), and PBS containing 10% fetal bovine serum was incubated at room temperature for 1 hour to perform blocking. After washing with a wash buffer, 100 μL/well of the assay medium to be measured was incubated at 4° C. overnight. As the standard material to be measured, a recombinant human TNF (manufactured by Becton, Dickinson and Company) was used. After washing with a wash buffer, 100 μL of a biotinylated anti-human TNF monoclonal antibody (clone: MAb11) as a detection antibody was treated at room temperature for 1 hour. After washing with a wash buffer, it was treated with 100 μL/well of an HRP-labeled Streptavidin (manufactured by Zymed Laboratories, Inc.) at room temperature for 30 minutes, and washed again. Treatment was conducted using 100 μL/well of a TMB (3,3′,5,5′-tetramethylbenzidine) substrate liquid at room temperature for 20 minutes in a dark room. A 2 M sulfuric acid was added thereto at 50 μL/well to stop the reaction, and an absorbance at 450 nm/570 nm was measured by means of a plate reader SPECRA max (manufactured by Molecular Devices Inc.).
A general note: An ELISA detects its analyte on a solid surface through an enzyme-linked reagent.

Sequence of rat EP4 receptor (P43114 whole entry): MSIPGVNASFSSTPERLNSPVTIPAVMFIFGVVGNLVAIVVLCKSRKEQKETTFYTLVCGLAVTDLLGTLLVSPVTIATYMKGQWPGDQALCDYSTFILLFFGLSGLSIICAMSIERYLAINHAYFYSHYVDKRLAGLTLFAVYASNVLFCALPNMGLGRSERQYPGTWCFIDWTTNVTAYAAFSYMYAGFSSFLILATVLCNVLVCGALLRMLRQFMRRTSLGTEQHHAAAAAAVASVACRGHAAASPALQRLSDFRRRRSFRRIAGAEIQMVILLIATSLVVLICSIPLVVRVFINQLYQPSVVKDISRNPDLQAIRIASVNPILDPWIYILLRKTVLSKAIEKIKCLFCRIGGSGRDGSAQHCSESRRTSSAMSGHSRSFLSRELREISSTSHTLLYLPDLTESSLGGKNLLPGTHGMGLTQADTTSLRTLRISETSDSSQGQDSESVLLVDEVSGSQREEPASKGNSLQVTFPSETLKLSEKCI

What is called Ki is the equilibrium dissociation constant of an inhibitor or competing ligand from its target. Low readings indicate tighter binding, high ones weaker binding. `O=C(O)c1ccc(CCn2c(CN3CCc4ccc(OC(F)(F)F)cc43)c(Cl)cc(Cl)c2=O)cc1` [Example 152]: in assay [1], the Ki was found to be 5.1 nM.

On to `CCCC[C@H]1CCCN1Cc1c(Cl)cc(Cl)c(=O)n1CCc1ccc(C(=O)O)cc1` [Example 158], for which the Ki in assay [1] came to 8.6 nM.

As a reminder, the ED50 is the midpoint of the dose-response relation. In turn, `Cc1cc(C2CC2)c(CN2CCC[C@@H]2CC(C)C)n(CCc2ccc(-c3n[nH]c(=O)o3)cc2)c1=O` [Example 346] yielded an ED50 in assay [2] of 2 mg/kg. In assay [1], this molecule returned a Ki of 2.8 nM. In the case of `COc1cc(OC)cc(N(C)Cc2c(Cl)cc(Cl)c(=O)n2CCc2ccc(C(=O)O)cc2)c1` [Example 125], the affinity in assay [1], expressed as Ki, was 29 nM. As for `CC(C)c1ccc2c(c1)N(Cc1c(Cl)cc(Cl)c(=O)n1CCc1ccc(C(=O)O)cc1)CC2` [Example 143], the inhibition constant (Ki) in assay [1] is 11 nM. The same measure, in the same setting: the value for `COc1cccc2c1N(Cc1c(Cl)cc(Cl)c(=O)n1CCc1ccc(C(=O)O)cc1)CC2` [Example 146] was 39 nM; that for `Cc1cccc2c1N(Cc1c(Cl)cc(Cl)c(=O)n1CCc1ccc(C(=O)O)cc1)CC2` [Example 139] was 12 nM.

As for `CC(C)c1cccc(N(C)Cc2c(Cl)cc(Cl)c(=O)n2CCc2ccc(C(=O)O)cc2)c1` [Example 5, 4-{2-[3,5-dichloro-6-{[(3-isopropylphenyl)(methyl)amino]methyl}-2-oxopyridin-1(2H)-yl]ethyl}benzoic acid], affinity in assay [1] was put at a Ki of 4.7 nM.

On to `Cc1ccc2c(c1)N(Cc1c(Cl)cc(Cl)c(=O)n1CCc1ccc(C(=O)O)cc1)CC2` [Example 138], for which the Ki in assay [1] worked out at 7.7 nM. `O=C(O)c1ccc(CCn2c(CNc3cccc(C(F)(F)F)c3)c(Cl)cc(Cl)c2=O)cc1` [Example 99]: the affinity in assay [1], expressed as Ki, was 25 nM.

Regarding `Cc1cccc(N(C)Cc2c(Cl)cc(Cl)c(=O)n2CCc2ccc(C(=O)O)cc2)c1` [Example 6, 4-{2-[3,5-dichloro-6-{[methyl(3-methylphenyl)amino]methyl}-2-oxopyridin-1(2H)-yl]ethyl}benzoic acid], the Ki in assay [1] turned out to be 11 nM. Broadly, the IC50 is the concentration that gives 50% inhibition. Low readings indicate greater potency, high ones weaker potency. As to `Cc1c(F)ccc2c1N(Cc1c(Cl)cc(Cl)c(=O)n1CCc1ccc(C(=O)O)cc1)CC2` [Example 149], the 50% inhibitory concentration (IC50) in assay [3] stood at 2.8 nM. This molecule also gave an inhibitory constant (Ki) in assay [1] of 9.5 nM. Regarding `CC(C)C[C@H]1CCCN1Cc1c(Cl)cc(Cl)c(=O)n1CCc1ccc(C(=O)O)cc1` [Ex 18], the affinity in assay [1] corresponds to a Ki of 4.4 nM.

Turning to `Cc1cc(C2CC2)c(CN2CCC[C@@H]2CC(C)C)n(CCc2ccc(C(=O)O)cc2)c1=O` [Ex 27], the concentration for half-maximal inhibition (IC50) in assay [3] amounted to 12 nM. In addition, the Ki in assay [1] turned out to be 25 nM. In assay [1], `COc1ccc2c(c1)N(Cc1c(Cl)cc(Cl)c(=O)n1CCc1ccc(C(=O)O)cc1)CC2` [Example 130] displayed an inhibition constant (Ki) of 4.1 nM. As for `COc1cccc(N(C)Cc2c(Cl)cc(Cl)c(=O)n2CCc2ccc(C(=O)O)cc2)c1` [Example 124], the affinity in assay [1] corresponds to a Ki of 6.2 nM. Regarding `CN(Cc1c(Cl)cc(Cl)c(=O)n1CCc1ccc(C(=O)O)cc1)c1cccc(OC(F)(F)F)c1` [Ex 19], the Ki in assay [1] amounted to 5.4 nM.

For `CCc1cccc(NCc2c(Cl)cc(Cl)c(=O)n2CCc2ccc(C(=O)O)cc2)c1` [Example 97], the affinity in assay [1] corresponds to a Ki of 11 nM. `CN(Cc1c(Cl)cc(Cl)c(=O)n1CCc1ccc(C(=O)O)cc1)C1CCCC1` [Ex 26] gave an IC50 in assay [3] of 12 nM. `CCc1cccc2c1N(Cc1c(Cl)cc(Cl)c(=O)n1CCc1ccc(C(=O)O)cc1)CC2` [Example 13] showed an IC50 in assay [3] of 7.4 nM. Moreover, in assay [1], the affinity, expressed as Ki, was 24 nM. In turn, `O=C(O)c1ccc(CCn2c(CN3CCc4ccc(C(F)(F)F)cc43)c(Cl)cc(Cl)c2=O)cc1` [Example 153] showed an inhibition constant Ki in assay [1] of 4.9 nM. In assay [1], `Cc1ccc2c(c1)CCCN2Cc1c(Cl)cc(Cl)c(=O)n1CCc1ccc(C(=O)O)cc1` [Example 145] registered a Ki of 19 nM.

`CCC[C@H]1CCCN1Cc1c(Cl)cc(Cl)c(=O)n1CCc1ccc(-c2nnn[nH]2)cc1` [Ex 42] yielded an IC50 in assay [3] of 15 nM. The molecule also returned an ED50 in assay [2] of 0.076 mg/kg. In assay [1], the Ki worked out at 0.52 nM. With `CCc1ccc2c(c1)N(Cc1c(Cl)cc(Cl)c(=O)n1CCc1ccc(C(=O)O)cc1)CC2` [Example 15, 4-(2-{3,5-dichloro-6-[(6-ethyl-2,3-dihydro-1H-indol-1-yl)methyl]-2-oxopyridin-1(2H)-yl}ethyl)benzoic acid], the affinity in assay [1], expressed as Ki, was 3.6 nM.

`CCN(Cc1c(Cl)cc(Cl)c(=O)n1CCc1ccc(C(=O)O)cc1)c1cccc(C(C)C)c1` [Example 123] had an inhibition constant (Ki) in assay [1] of 21 nM. In assay [3], `Cc1cc(C)c(=O)n(CCc2ccc(-c3n[nH]c(=O)o3)cc2)c1CN1CCC[C@@H]1CC(C)C` [Example 345] came in with a 50% inhibitory concentration (IC50) of 13 nM. Further, it took a dose of 1.9 mg/kg to reach the 50% effect level in assay [2] (ED50). The affinity in assay [1], expressed as Ki, was 2.2 nM. `CN(Cc1c(Cl)cc(Cl)c(=O)n1CCc1ccc(C(=O)O)cc1)c1cccc(F)c1` [Example 122]: the affinity in assay [1], expressed as Ki, was 16 nM. On to `O=C(O)c1ccc(CCn2c(CN3CCc4ccc(Cl)cc43)c(Cl)cc(Cl)c2=O)cc1` [Example 150], for which affinity in assay [1] was put at a Ki of 15 nM.

In turn, `O=C(O)c1ccc(CCn2c(CN3CCc4ccccc43)c(Cl)cc(Cl)c2=O)cc1` [Example 16, 4-{2-[3,5-dichloro-6-(2,3-dihydro-1H-indol-1-ylmethyl)-2-oxopyridin-1(2H)-yl]ethyl}benzoic acid] registered a Ki in assay [1] of 13 nM. Turning to `CC(C)c1cccc(NCc2c(Cl)cc(Cl)c(=O)n2CCc2ccc(C(=O)O)cc2)c1` [Example 91], in assay [1], the Ki stood at 9.8 nM.
